Values quoted from earlier work in patent publication US9206237B2, “Cystine knot peptides that bind alpha-V-beta-6 integrin” (priority 2011, dated 2015).
Read-outs that look alike come from different tables or passages of the source.

How the values were obtained:
alpha-v-beta-6 [1] = biological target: T1, alpha-v-beta-6 (Homo sapiens, UniProt P06756+P18564); settings: inhibition of RGD-dependent ligand binding; read-out: IC50, isolated receptor assays
Target sequence in this assay (P06756 31-992 limits assumed): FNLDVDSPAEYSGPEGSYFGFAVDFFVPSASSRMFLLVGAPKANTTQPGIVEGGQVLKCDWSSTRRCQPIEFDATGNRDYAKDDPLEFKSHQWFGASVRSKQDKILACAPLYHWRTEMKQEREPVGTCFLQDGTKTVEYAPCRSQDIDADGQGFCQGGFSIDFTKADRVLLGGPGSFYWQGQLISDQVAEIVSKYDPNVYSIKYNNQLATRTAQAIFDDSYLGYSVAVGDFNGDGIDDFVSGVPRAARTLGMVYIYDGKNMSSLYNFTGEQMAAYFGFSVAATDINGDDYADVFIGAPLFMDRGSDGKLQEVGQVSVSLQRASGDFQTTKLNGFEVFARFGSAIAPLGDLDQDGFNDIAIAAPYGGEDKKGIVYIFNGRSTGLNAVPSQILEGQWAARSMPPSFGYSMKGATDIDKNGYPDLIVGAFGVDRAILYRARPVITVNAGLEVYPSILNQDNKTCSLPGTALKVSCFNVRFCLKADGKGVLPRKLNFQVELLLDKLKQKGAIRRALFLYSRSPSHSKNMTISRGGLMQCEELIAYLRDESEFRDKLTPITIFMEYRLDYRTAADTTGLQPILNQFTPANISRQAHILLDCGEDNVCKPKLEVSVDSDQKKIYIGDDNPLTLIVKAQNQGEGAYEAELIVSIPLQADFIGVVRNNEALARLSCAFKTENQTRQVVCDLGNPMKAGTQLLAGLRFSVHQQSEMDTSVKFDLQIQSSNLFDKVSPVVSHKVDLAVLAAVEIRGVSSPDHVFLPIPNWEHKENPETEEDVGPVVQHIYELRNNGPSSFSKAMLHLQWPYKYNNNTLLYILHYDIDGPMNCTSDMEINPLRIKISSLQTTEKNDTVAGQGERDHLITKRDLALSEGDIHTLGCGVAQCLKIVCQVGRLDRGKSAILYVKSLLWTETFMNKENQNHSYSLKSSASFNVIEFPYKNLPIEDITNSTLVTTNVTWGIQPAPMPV
Target sequence in this assay (P18564 22-709 limits assumed): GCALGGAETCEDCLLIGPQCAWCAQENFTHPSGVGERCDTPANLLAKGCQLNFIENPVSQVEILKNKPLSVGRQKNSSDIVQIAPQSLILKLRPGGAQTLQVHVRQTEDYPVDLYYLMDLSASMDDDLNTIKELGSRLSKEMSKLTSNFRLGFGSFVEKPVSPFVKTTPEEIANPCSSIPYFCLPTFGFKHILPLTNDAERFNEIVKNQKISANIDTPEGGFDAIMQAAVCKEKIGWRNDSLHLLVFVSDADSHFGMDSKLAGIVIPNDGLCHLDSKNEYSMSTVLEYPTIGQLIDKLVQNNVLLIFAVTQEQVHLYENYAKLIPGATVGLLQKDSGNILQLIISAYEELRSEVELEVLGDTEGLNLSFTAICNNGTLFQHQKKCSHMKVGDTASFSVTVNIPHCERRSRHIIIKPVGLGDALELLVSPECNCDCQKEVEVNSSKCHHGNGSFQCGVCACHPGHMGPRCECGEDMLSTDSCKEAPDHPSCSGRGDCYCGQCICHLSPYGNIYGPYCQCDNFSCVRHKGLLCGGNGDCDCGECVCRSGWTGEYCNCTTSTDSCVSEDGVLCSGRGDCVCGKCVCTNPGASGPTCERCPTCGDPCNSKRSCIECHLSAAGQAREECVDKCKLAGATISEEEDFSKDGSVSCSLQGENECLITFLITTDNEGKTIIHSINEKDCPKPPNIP

alpha-v-beta-6 [2] = biological target: T1, alpha-v-beta-6; settings: read-out: IC50, cell adhesion assays
Target sequence in this assay (P06756 31-1048): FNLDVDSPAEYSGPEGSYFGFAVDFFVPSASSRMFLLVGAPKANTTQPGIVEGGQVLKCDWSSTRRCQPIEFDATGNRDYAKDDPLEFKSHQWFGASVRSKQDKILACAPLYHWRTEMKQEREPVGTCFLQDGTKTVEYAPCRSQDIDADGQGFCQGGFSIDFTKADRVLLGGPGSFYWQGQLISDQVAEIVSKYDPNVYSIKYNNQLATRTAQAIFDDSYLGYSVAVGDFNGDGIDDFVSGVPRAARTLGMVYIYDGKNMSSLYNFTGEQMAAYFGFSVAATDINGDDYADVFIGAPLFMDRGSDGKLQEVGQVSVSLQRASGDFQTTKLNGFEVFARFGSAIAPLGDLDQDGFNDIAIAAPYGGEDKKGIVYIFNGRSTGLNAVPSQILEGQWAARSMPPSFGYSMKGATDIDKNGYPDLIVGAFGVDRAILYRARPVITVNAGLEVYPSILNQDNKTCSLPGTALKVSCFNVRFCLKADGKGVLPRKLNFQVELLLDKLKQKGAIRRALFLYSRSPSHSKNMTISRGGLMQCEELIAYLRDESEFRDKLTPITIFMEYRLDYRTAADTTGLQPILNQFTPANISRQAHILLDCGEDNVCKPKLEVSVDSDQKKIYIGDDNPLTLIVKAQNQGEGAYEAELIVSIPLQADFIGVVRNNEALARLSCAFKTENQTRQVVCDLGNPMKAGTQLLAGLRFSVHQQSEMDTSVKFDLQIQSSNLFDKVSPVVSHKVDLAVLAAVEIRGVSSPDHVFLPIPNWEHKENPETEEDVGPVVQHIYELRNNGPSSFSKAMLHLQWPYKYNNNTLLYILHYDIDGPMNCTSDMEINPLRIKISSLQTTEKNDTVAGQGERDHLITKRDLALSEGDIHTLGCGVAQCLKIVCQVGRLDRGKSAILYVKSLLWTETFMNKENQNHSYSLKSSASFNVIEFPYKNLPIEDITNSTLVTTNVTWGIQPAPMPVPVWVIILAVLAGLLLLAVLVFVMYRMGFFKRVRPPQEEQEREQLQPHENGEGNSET
Target sequence in this assay (P18564 22-788): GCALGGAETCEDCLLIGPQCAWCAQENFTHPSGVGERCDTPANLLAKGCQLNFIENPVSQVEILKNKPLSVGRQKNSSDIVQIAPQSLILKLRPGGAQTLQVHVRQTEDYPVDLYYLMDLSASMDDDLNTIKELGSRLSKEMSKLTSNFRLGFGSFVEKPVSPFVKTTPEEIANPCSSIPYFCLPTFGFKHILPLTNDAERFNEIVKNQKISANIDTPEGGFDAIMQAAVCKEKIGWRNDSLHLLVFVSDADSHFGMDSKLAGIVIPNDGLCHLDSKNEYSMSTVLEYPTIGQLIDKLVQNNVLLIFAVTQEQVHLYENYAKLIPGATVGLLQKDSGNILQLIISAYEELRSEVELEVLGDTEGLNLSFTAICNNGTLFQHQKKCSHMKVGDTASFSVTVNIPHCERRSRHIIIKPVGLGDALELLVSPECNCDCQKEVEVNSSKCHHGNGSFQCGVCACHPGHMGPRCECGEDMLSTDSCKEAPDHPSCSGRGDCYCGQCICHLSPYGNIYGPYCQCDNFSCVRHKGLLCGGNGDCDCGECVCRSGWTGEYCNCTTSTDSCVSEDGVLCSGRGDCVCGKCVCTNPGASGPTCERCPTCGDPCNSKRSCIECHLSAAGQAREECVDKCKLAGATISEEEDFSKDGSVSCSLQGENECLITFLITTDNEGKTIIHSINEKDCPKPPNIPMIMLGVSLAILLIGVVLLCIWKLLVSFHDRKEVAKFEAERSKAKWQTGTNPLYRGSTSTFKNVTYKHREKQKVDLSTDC

RTDLDSLRTYTL
IC50 (alpha-v-beta-6 [1]): 0.02 µM
IC50 (alpha-v-beta-6 [2]): 50 µM
